Patent US20170291905A1, “ARGININE […] INHIBITORS AND USES THEREOF” (Epizyme, Inc., priority 2014, published 2017)

Target: full-length human PRMT8 isoform 1 (Homo sapiens, UniProt Q9NR22)
Assay: PRMT8 biochemical assay (3H-SAM Flashplate, histone H4 31-45 peptide)
Settings: 1.5 nM PRMT8, 30 min preincubation, 150 nM peptide
Source text: S-adenosylmethionine (SAM), S-adenosylhomocysteine (SAH), bicine, Tween20, dimethylsulfoxide (DMSO), bovine skin gelatin (BSG), isopropyl-β-D-thiogalactopyranoside (IPTG), and Tris(2-carboxyethyl)phosphine hydrochloride solution (TCEP) were purchased from Sigma-Aldrich at the highest level of purity possible. ^3H-SAM was purchase from American Radiolabeled Chemicals with a specific activity of 80 Ci/mmol. 384-well streptavidin Flashplates were purchased from PerkinElmer.
Peptide representative of human histone H4 residues 31-45 was synthesized with an N-terminal linker-affinity tag motif and a C-terminal amide cap by 21st Century Biochemicals. The peptide was purified by high-performance liquid chromatography (HPLC) to greater than 95% purity and confirmed by liquid chromatography mass spectrometry (LC-MS). The sequence was Biot-Ahx-[…]-amide (SEQ ID NO.:8).
The resulting construct encodes an N-terminal GST tag and a thrombin cleavage sequence
E. coli (BL21(DE3) Gold, Stratagene) made competent by the CaCl2 method were transformed with the PRMT8 construct and ampicillin selection. Protein over-expression was accomplished by growing the PRMT8 expressing E. coli clone and inducing expression with 0.3 mM IPTG at 16° C. The culture was grown for 12 hours, harvested by centrifugation, and stored at −80° C. for purification.
GST-tagged PRMT8 was eluted with 50 mM Tris, 2 mM glutathione, pH 7.8. Pooled fractions were cleaved by thrombin (10U) and dialysed in buffer A. GST was removed by reloading the cleaved protein sample onto glutathione sepharose column and PRMT8 was collected in the flow-through fractions. PRMT8 was purified further by ceramic hydroxyapatite chromatography. The column was washed with 50 mM phosphate buffer, 100 mM NaCl, 5% glycerol, 5 mM […], pH 7.8 and PRMT8 was eluted by 100 mM phosphate in the same buffer. Protein was concentrated and buffer was exchanged to 50 mM Tris, 300 mM NaCl, 10% glycerol, 5 mM β-mercaptoethanol, pH 7.8 by ultrafiltration. The purity of recovered protein was 89%.
General Procedure for PRMT8 Enzyme Assays on Peptide Substrates.
The assays were all performed in a buffer consisting of 20 mM Bicine (pH=7.6), 1 mM TCEP, 0.005% BSG, and 0.002% Tween 20, prepared on the day of use. Compounds in 100% DMSO (1 ul) were spotted into a polypropylene 384-well V-bottom plates (Greiner) using a Platemate Plus outfitted with a 384-channel head (Thermo Scientific). DMSO (1 ul) was added to Columns 11, 12, 23, 24, rows A-H for the maximum signal control and 1 ul of SAH, a known product and inhibitor of PRMT8, was added to columns 11, 12, 23, 24, rows I-P for the minimum signal control. A cocktail (40 ul) containing the PRMT8 enzyme was added by Multidrop Combi (Thermo-Fisher). The compounds were allowed to incubate with PRMT8 for 30 min at room temperature, then a cocktail (10 ul) containing ^3H-SAM and peptide was added to initiate the reaction (final volume=51 ul). The final concentrations of the components were as follows: PRMT8 was 1.5 nM, ^3H-SAM was 50 nM, non-radiolabeled SAM was 550 nM, peptide was 150 nM, SAH in the minimum signal control wells was 1 mM, and the DMSO concentration was 2%. The assays were stopped by the addition of non-radiolabeled SAM (10 ul) to a final concentration of 400 uM, which dilutes the ^3H-SAM to a level where its incorporation into the peptide substrate is no longer detectable. 50 ul of the reaction in the 384-well polypropylene plate was then transferred to a 384-well Flashplate and the biotinylated peptides were allowed to bind to the streptavidin surface for at least 1 hour before being washed once with 0.1% Tween20 in a Biotek ELx405 plate washer. The plates were then read in a PerkinElmer TopCount plate reader to measure the quantity of ^3H-labeled peptide bound to the Flashplate surface, measured as disintegrations per minute (dpm) or alternatively, referred to as counts per minute (cpm). […]

Sequence of full-length human PRMT8 isoform 1 (Q9NR22 whole entry, canonical isoform): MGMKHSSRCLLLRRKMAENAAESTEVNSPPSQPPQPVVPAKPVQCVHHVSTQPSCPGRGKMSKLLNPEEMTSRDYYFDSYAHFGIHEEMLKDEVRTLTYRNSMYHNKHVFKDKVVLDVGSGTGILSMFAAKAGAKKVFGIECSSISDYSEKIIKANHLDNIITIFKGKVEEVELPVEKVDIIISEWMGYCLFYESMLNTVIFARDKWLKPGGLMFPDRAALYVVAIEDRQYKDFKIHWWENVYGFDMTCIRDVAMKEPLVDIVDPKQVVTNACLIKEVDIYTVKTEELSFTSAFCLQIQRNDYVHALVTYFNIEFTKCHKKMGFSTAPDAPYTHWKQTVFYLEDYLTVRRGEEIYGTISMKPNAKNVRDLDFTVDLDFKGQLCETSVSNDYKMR

Structure (SMILES)	IC50 [nM]
CCOCCOCC1(COCCOCC)CCC(c2n[nH]cc2CN(C)CCNC)CC1 [compound 39, N1-((3-(4,4-bis((2-ethoxyethoxy)methyl)cyclohexyl)-1H-pyrazol-4-yl)methyl)-N1,N2-dimethylethane-1,2-diamine]	139
CN(C)CCN(C)Cc1c[nH]nc1[C@H]1CC[C@@]2(CC1)CC(C)(C)CO2 [compound 42, N1-((3-((5S,8S)-3,3-dimethyl-1-oxaspiro[4.5]decan-8-yl)-1H-pyrazol-4-yl)methyl)-N1,N2,N2-trimethylethane-1,2-diamine]	33.8
CC[C@H]1CC[C@@H](c2n[nH]cc2CN(C)CCNC)CC1 [compound 1]	11.1
CN(C)CCN(C)Cc1c[nH]nc1[C@H]1CC[C@]2(CC1)CC(C)(C)CO2 [compound 43, N1-((3-((5r,8r)-3,3-dimethyl-1-oxaspiro[4.5]decan-8-yl)-1H-pyrazol-4-yl)methyl)-N1,N2,N2-trimethylethane-1,2-diamine]	97.2
CNCCN(C)Cc1c[nH]nc1C1CCC(COCCC2CCOCC2)(COCCC2CCOCC2)CC1 [compound 40]	45.5
CNCCN(C)Cc1c[nH]nc1C1CCC(COCC2CC2)(COCC2CC2)CC1 [compound 41, N1-((3-(4,4-bis((cyclopropylmethoxy)methyl)cyclohexyl)-1H-pyrazol-4-yl)methyl)-N1,N2-dimethylethane-1,2-diamine]	9.27

Further lines, results first:

IC50 [nM]	Structure (SMILES)
11.2	CNCCN(C)Cc1c[nH]nc1C1CCC(COC)(COCC2CCOCC2)CC1 (stereo not drawn) [compound 45]
34.4	CNCCN(C)Cc1c[nH]nc1C1CCC(CO)(CO)CC1 [compound 44, (4-(4-((methyl(2-(methylamino)ethyl)amino)methyl)-1H-pyrazol-3-yl)cyclohexane-1,1-diyl)dimethanol]
14.9	CCC1(CC)C[C@]2(CC[C@H](c3n[nH]cc3CN(C)CCNC)CC2)NC1=O [compound 47, (5s,8s)-3,3-diethyl-8-(4-((methyl(2-(methylamino)ethyl)amino)methyl)-1H-pyrazol-3-yl)-1-azaspiro[4.5]decan-2-one]
24.6	CNCCN(C)Cc1c[nH]nc1C1=CCC2(CC1)CC(C)(C)CO2 (stereo not drawn) [compound 46, N1-((3-(3,3-dimethyl-1-oxaspiro[4.5]dec-7-en-8-yl)-1H-pyrazol-4-yl)methyl)-N1,N2-dimethylethane-1,2-diamine]
70.6	CCC1(CC)C[C@]2(CC[C@@H](c3n[nH]cc3CN(C)CCNC)CC2)NC1=O [compound 48, (5r,8r)-3,3-diethyl-8-(4-((methyl(2-(methylamino)ethyl)amino)methyl)-1H-pyrazol-3-yl)-1-azaspiro[4.5]decan-2-one]
16.7	CNCCN(C)Cc1ccnn1[C@H]1CC[C@@]2(CC1)CC(C)(C)CO2 [compound 49, N1-((1-((5s,8s)-3,3-dimethyl-1-oxaspiro[4.5]decan-8-yl)-1H-pyrazol-5-yl)methyl)-N1,N2-dimethylethane-1,2-diamine]
